The source of these data is article PMC6253998, “Ring-substituted 4-Hydroxy-1H-quinolin-2-ones: Preparation and Biological Activity” (Molecules, 2009).

Broadly, the IC50 is the concentration that gives 50% inhibition.

≈ marks a conversion by molar mass, not a printed value. Where “and” joins values, the source holds several entries; their conditions need not be identical. Equal entries are not always repeated. Where two headings read alike, the source gives them in different places.

One series deals with eight fungal strains. Put plainly: In vitro antifungal screening, overall verdict. The class given is cell-based. The note with it: especially against Candida albicans ATCC 44859. Here is the method: (§1) The broth microdilution test was used for the assessment of in vitro antifungal activity of the synthesized compounds against Candida albicans ATCC 44859 (CA), Candida tropicalis 156 (CT), Candida krusei ATCC 6258 (CK), Candida glabrata 20/I (CG), Trichosporon beigelii 1188 (TB), Aspergillus fumigatus 231 (AF), Absidia corymbifera 272 (AC), and Trichophyton mentagrophytes 445 (TM). Fluconazole (FLU) was used as the standard of a clinically used antimycotic drug. The procedure was performed with twofold dilution of the compounds in RPMI 1640 (Sevapharma a.s., Prague, Czech Republic) buffered to pH 7.0 with 0.165 mol of 3-morpholino-propane-1-sulfonic acid (MOPS, Sigma, Germany). The final concentrations of the compounds ranged from 500 to 0.975 μmol/l. Drug–free controls were included. The MIC was defined as an 80% or greater (IC80) reduction of growth in comparison with the control. The values of MICs were determined after 24 and 48 h of static incubation at 35 °C. For T. mentagrophytes, the final MICs were determined after 72 and 120 h of incubation.

Series [1] concerns Trichosporon beigelii 1188. Put plainly: In vitro antifungal broth microdilution test. The class given is cell-based. The note with it: RPMI 1640, pH 7.0, 35 °C; for MIC: Trichosporon beigelii, 1188, read-out: MIC/IC80 TB. As for the experimental part:
as §1
In general terms: Dilution methods test growth across graded concentrations, often in twofold steps.

Series [2] deals with Candida albicans ATCC 44859. Put plainly: In vitro antifungal broth microdilution test. The note with it: RPMI 1640, pH 7.0, 35 °C; for MIC: Candida albicans, ATCC44859, read-out: MIC/IC80 CA. The class given is cell-based. As for the experimental part:
(§2) Fluconazole (FLU) was used as the standard of a clinically used antimycotic drug. The procedure was performed with twofold dilution of the compounds in […]., Prague, Czech Republic) buffered to pH 7.0 with 0.165 mol of 3-morpholino-propane-1-sulfonic acid (MOPS, Sigma, Germany). […] Drug-free controls were included. The MIC was defined as an 80% or greater (IC80) reduction of growth in comparison with the control.

The next series deals with Candida glabrata 20/I. Description: In vitro antifungal broth microdilution test. The series is classed as cell-based. The note with it: for MIC/IC80 CG / MIC: RPMI 1640, pH 7.0, 35 °C; for MIC: Nakaseomyces glabratus, 20/I, read-out: MIC/IC80 CG. As for the experimental part:
as §2

The test system of series [3] is Trichophyton mentagrophytes 445. Put plainly: In vitro antifungal broth microdilution test. The note with it: for MIC/IC80 TM / MIC: RPMI 1640, pH 7.0, 35 °C; for MIC: Trichophyton mentagrophytes, 445, read-out: MIC/IC80 TM. The series is classed as cell-based. As for the experimental part: as §2
A further series has as its system Absidia corymbifera 272. Put plainly: In vitro antifungal broth microdilution test. The class given is cell-based. The note with it: RPMI 1640, pH 7.0, 35 °C; for MIC: Lichtheimia corymbifera, 272, read-out: MIC/IC80 AC. As for the experimental part:
as §2

The next series deals with Candida krusei ATCC 6258. Description: In vitro antifungal broth microdilution test. The series is classed as cell-based. The note with it: RPMI 1640, pH 7.0, 35 °C; for MIC: Pichia kudriavzevii, ATCC6258, read-out: MIC/IC80 CK. As for the experimental part: as §2
Another series has as its system Candida tropicalis 156. Description: In vitro antifungal broth microdilution test. The class given is cell-based. The note with it: RPMI 1640, pH 7.0, 35 °C; for MIC: Candida tropicalis, 156, read-out: MIC/IC80 CT. As for the experimental part:
as §2

Series [4] concerns Aspergillus fumigatus 231. Put plainly: In vitro antifungal broth microdilution test. The series is classed as cell-based. The note with it: RPMI 1640, pH 7.0, 35 °C; for MIC: Aspergillus fumigatus, 231, read-out: MIC/IC80 AF. Here is the method:
as §2

Series [5] in a line: Lipophilicity HPLC determination (capacity factor k / log k). The class given is physicochemical. The note with it: RP-HPLC, C18 column, MeOH 55.0% / H2O 45.0%, isocratic. Here is the method:
Hydrophobicities (log P/Clog P values) of the compounds 1-12 were calculated using two commercially available programs and also measured by means of the reversed phase high performance liquid chromatography (RP-HPLC) method for lipophilicity measurement. The procedure was performed under isocratic conditions with methanol as an organic modifier in the mobile phase using an end-capped non-polar C18 stationary RP column. The capacity factors k were determined and subsequent log k values were calculated.
The HPLC separation module Waters Alliance 2695 XE and Waters Photodiode Array Detector 2996 (Waters Corp., Milford, MA, U.S.A.) were used. A Symmetry® C18 5 μm, 4.6 × 250 mm, Part No. WAT054275, (Waters Corp., Milford, MA, U.S.A.) chromatographic column was used. The HPLC separation process was monitored by Millennium32® Chromatography Manager Software, Waters 2004 (Waters Corp., Milford, MA, U.S.A.). The mixture of MeOH p.a. (55.0%) and H2O-HPLC – Mili-Q Grade (45.0%) was used as a mobile phase. The total flow of the column was 0.9 mL/min, injection 30 μL, column temperature 30 °C and sample temperature 10 °C. The detection wavelength 210 nm was chosen. The KI methanolic solution was used for the dead time (TD) determination. Retention times (tR) were measured in minutes. The capacity factors k were calculated using the Millennium32® Chromatography Manager Software according to formula k = (tR - tD) / tD, where tR is the retention time of the solute, whereas tD denotes the dead time obtained via an unretained analyte. Log k, calculated from the capacity factor k, is used as the lipophilicity index converted to log P scale.

Series [6] concerns spinach chloroplasts. Description: Inhibition of oxygen evolution rate (OER) / photosynthetic electron transport in spinach chloroplasts. The note with it: DCPIP photoreduction, pH 7.2. The class given is biochemical, Spinacia oleracea L. As for the experimental part:
Chloroplasts were prepared from spinach (Spinacia oleracea L.) according to Masarovicova and Kralova. The inhibition of photosynthetic electron transport (PET) in spinach chloroplasts was determined spectrophotometrically (Genesys 6, Thermo Scientific, U.S.A.) using an artificial electron acceptor 2,6-dichlorophenol-indophenol (DCPIP) according to Kralova et al. and the rate of photosynthetic electron transport was monitored as a photoreduction of DCPIP. The measurements were carried out in phosphate buffer (0.02 mol/L, pH 7.2) containing sucrose (0.4 mol/L), MgCl2 (0.005 mol/L) and NaCl (0.015 mol/L). The chlorophyll content was 30 mg/L in these experiments and the samples were irradiated (~100 W/m^2) from 10 cm distance with a halogen lamp (250 W) using a 4 cm water filter to prevent warming of the samples (suspension temperature 22 °C). The studied compounds were dissolved in DMSO due to their limited water solubility. […] The inhibitory efficiency of the studied compounds was expressed by IC50 values, i.e. by molar concentration of the compounds causing 50% decrease in the oxygen evolution rate relative to the untreated control.

The subject of series [7] is spinach chloroplasts. On the set-up: method as in earlier work. The note with it: standard, read-out: OER inhibition IC50; cited from earlier work.

For the compound “3-(4-Carboxy-3-hydroxyphenylcarbamoyl)-4-hydroxy-2-oxo-1,2-dihydroquinoline-6-carboxylic acid [Compound 12]”, in the series on eight fungal strains, the “in vitro antifungal activity (in words)” value is “only a moderate activity”. Also, the “MIC/IC80 TB” value in series [1] (24h) is 125 µM; in [1] (48h), greater than 500 µM. In addition, the “MIC/IC80 CA” value in series [2] (24h) was determined as 62.50 µM; in [2] (48h), 125 µM. The “MIC/IC80 CG” value in the series with Candida glabrata 20/I (24h) came to 125 µM; against Candida glabrata 20/I (48h), 250 µM. Moreover, the “MIC/IC80 TM” value is 500 µM in [3] (72h) and greater than 500 µM in series [3] (120h). The “MIC/IC80 AC” value was 500 µM in the series on Absidia corymbifera 272 (24h) and greater than 500 µM in the series on Absidia corymbifera 272 (48h). The “MIC/IC80 CK” value against Candida krusei ATCC 6258 (24h) and with Candida krusei ATCC 6258 (48h) was greater than 500 µM each time. In addition, the entries for the “MIC/IC80 CT” value with Candida tropicalis 156 (24h) and in the series on Candida tropicalis 156 (48h) were 500 µM and greater than 500 µM, respectively. For the same compound, the “MIC/IC80 AF” value in [4] (24h) was 500 µM; in [4] (48h), greater than 500 µM. This compound yielded a log k in series [5] of 0.0093. Half-maximal inhibition in the series on spinach chloroplasts [6] (IC50) required 321 µM.

Take `O=C(O)c1cc2c(O)cc(=O)[nH]c2cc1O` [Compound 4, 4,7-Dihydroxy-2-oxo-1,2-dihydroquinoline-6-carboxylic acid]: the “in vitro antifungal activity (in words)” value with eight fungal strains is on record as “only a moderate activity”. For the same compound, the MIC in series [1] (24h) is 62.5 µM (≈ 13.8 µg/mL); in series [1] (48h) it was greater than 500 µM; in series [2] (24h), 15.6 µM (≈ 3.45 µg/mL); in series [2] (48h), 62.5 µM (≈ 13.8 µg/mL); with Candida glabrata 20/I (24h), 62.5 µM (≈ 13.8 µg/mL); in the series with Candida glabrata 20/I (48h), 250 µM (≈ 55.3 µg/mL). Moreover, the MIC (in [3] (72h); in series [3] (120h); with Absidia corymbifera 272 (24h); in the series on Absidia corymbifera 272 (48h); in the series with Candida krusei ATCC 6258 (24h); in the series on Candida krusei ATCC 6258 (48h)) was greater than 500 µM in each case. Besides, the MIC with Candida tropicalis 156 (24h) was 500 µM (≈ 111 µg/mL); in the series on Candida tropicalis 156 (48h), greater than 500 µM; in series [4] (24h), 500 µM (≈ 111 µg/mL); in [4] (48h) it was greater than 500 µM. Further, the “antifungal activity against Candida glabrata 20/I (in words)” value in the series with Candida glabrata 20/I was “medium activity”. In series [5], this compound gave a log k of 0.0080. Besides, the IC50 in the series with spinach chloroplasts [6] is 538 µM.

On to `O=C(O)c1ccc2[nH]c(=O)c(/N=N/c3cc(Cl)c([N+](=O)[O-])cc3Cl)c(O)c2c1` [Compound 8, (E)-3-[(2,5-Dichloro-4-nitrophenyl)diazenyl]-4-hydroxy-2-oxo-1,2-dihydroquinoline-6-carboxylic acid], for which, in the series with eight fungal strains, the “in vitro antifungal activity (in words)” value is reported as “only a moderate activity”. Moreover, the MIC in series [1] (24h) was 250 µM (≈ 106 µg/mL); in series [1] (48h), greater than 250 µM; in series [2] (24h), 31.2 µM (≈ 13.2 µg/mL); in series [2] (48h), 125 µM (≈ 52.9 µg/mL); in the series with Candida glabrata 20/I (24h) it was 250 µM (≈ 106 µg/mL); in the series with Candida glabrata 20/I (48h), greater than 250 µM. For the same compound, the MIC in series [3] (72h) was 62.5 µM (≈ 26.4 µg/mL); in series [3] (120h), 125 µM (≈ 52.9 µg/mL); in the series with Absidia corymbifera 272 (24h), 62.5 µM (≈ 26.4 µg/mL); in the series on Absidia corymbifera 272 (48h), 250 µM (≈ 106 µg/mL); with Candida krusei ATCC 6258 (24h), 250 µM (≈ 106 µg/mL); in the series on Candida krusei ATCC 6258 (48h), 250 µM (≈ 106 µg/mL). Besides, the MIC with Candida tropicalis 156 (24h) is 250 µM (≈ 106 µg/mL); with Candida tropicalis 156 (48h) it was greater than 250 µM; in series [4] (24h), 125 µM (≈ 52.9 µg/mL); in series [4] (48h) it was 250 µM (≈ 106 µg/mL). Moreover, in series [3], the “antifungal activity against Trichophyton mentagrophytes 445 (in words)” value was “medium activity”. Also, the log k in series [5] is given as 0.6394. Further, in the series with spinach chloroplasts [6], the IC50 is 126 µM.

On to `CN(C)C(=O)Nc1ccc(Cl)c(Cl)c1` [DCMU, 3-(3,4-dichlorophenyl)-1,1-dimethylurea], for which the IC50 with spinach chloroplasts [7] was ~1.9 µM and 1.9 µM.
